Data: patent US8765730B2 (Hoffmann-La Roche Inc, priority 2010, dated 2014)

target: T1, human GPBAR1 receptor (Homo sapiens, UniProt Q8TDU6); test: functional cAMP assay in CHO-dhfr(minus) cells expressing human GPBAR1 receptors; assay type: cell-based; settings: functional cAMP assay, 30 min at 30° C., read-out: human EC50
T1 construct: expressed in transfected cells
T1 sequence (Q8TDU6 1-330): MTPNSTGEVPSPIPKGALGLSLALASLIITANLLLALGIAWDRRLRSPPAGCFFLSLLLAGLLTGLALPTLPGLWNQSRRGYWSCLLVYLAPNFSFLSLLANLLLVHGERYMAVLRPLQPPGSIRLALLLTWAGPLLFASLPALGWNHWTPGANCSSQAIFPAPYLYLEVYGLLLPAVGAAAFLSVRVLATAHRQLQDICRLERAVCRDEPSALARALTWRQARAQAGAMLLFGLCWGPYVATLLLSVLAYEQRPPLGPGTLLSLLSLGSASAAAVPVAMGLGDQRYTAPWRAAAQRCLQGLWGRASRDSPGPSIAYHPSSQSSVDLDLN
In short: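 Agonist cAMP read-out: stable GPBAR1 CHO-dhfr− clone, 30 min compound exposure at 30° C following 30 min IBMX (1 mM) preincubation in Krebs Ringer bicarbonate. Time-resolved energy-transfer detection gives EC50; parental CHO cells serve as counter-screen.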

| EC50 | SMILES |
| --- | --- |
| 0.005 µM | COC1CN(c2ccc([C@@H](C/C(=N\O)c3ccnc(C)c3)c3ccccc3C)cc2)C1 [Example 270, (E,R)-3-[4-(3-Methoxy-azetidin-1-yl)-phenyl]-1-(2-methyl-pyridin-4-yl)-3-o-tolyl-propan-1-one oxime] |

same assay, conditions: human EC50, functional cAMP assay, 30 min at 30° C.

| SMILES | EC50 |
| --- | --- |
| Cc1cc(/C(C[C@H](c2ccc(N[C@H]3C[C@H](C(=O)O)C3)cc2)c2ccccc2C)=N/O)ccn1 [Example 356, 3-{4-[(R)-3-[(E)-Hydroxyimino]-3-(2-methyl-pyridin-4-yl)-1-o-tolyl-propyl]-phenylamino}-cyclobutanecarboxylic acid] | 0.09 µM |
| C=CCC(C/C(=N\O)c1ccc(=O)n(C)c1)c1ccc(Br)cc1 (centres unmarked) [Example 176, 5-{3-(4-Bromo-phenyl)-1-[(E)-hydroxyimino]-hex-5-enyl}-1-methyl-1H-pyridin-2-one] | 0.369 µM |
| Cc1cc(/C(CC(c2ccc(C(=O)NC3CCS(=O)(=O)CC3)cc2)c2ccc(F)cc2F)=N/O)ccn1 (centres unmarked) [Example 440, 4-[1-(2,4-Difluoro-phenyl)-3-[(E)-hydroxyimino]-3-(2-methyl-pyridin-4-yl)-propyl]-N-(1,1-dioxo-hexahydro-1λ^6-thiopyran-4-yl)-benzamide] | 0.148 µM |
| Cc1cc(/C(C[C@H](c2ccc(-c3ccc(C(=O)O)c(F)c3)cc2)c2ccc(Cl)cc2F)=N/O)ccn1 (single isomer, unassigned) [Example 448, 4′-[(−)-1-(4-Chloro-2-fluoro-phenyl)-3-[(E)-hydroxyimino]-3-(2-methyl-pyridin-4-yl)-propyl]-3-fluoro-biphenyl-4-carboxylic acid] | 0.018 µM |
| Cc1cc(/C(CC(c2ccc(C(=O)NC[C@@H](C)O)cc2)c2ccc(F)cc2F)=N/O)ccn1 (stereo partly drawn) [Example 434, 4-[1-(2,4-Difluoro-phenyl)-3-[(E)-hydroxyimino]-3-(2-methyl-pyridin-4-yl)-propyl]-N—((R)-2-hydroxy-propyl)-benzamide] | 0.049 µM |
| Cc1cc(/C(C[C@H](c2ccc(-c3cn(CC(=O)O)nn3)cc2)c2ccccc2C)=N/O)ccn1 (single isomer, unassigned) [Example 425, (4-{4-[(−)-3-[(E)-Hydroxyimino]-3-(2-methyl-pyridin-4-yl)-1-o-tolyl-propyl]-phenyl}-[1,2,3]triazol-1-yl)-acetic acid] | 0.014 µM |
| Cc1ccccc1[C@@H](C/C(=N\O)c1cnc(=O)n(C)c1)c1ccc(S(C)(=O)=O)cc1 [Example 502, (S,E)-5-(1-(Hydroxyimino)-3-(4-(methylsulfonyl)phenyl)-3-o-tolylpropyl)-1-methyl-pyrimidin-2(1H)-one] | 0.477 µM |
| Cc1cc(/C(C[C@H](c2ccccc2)c2ccccc2C)=N/O)ccn1 [Example 368, (R,E)-1-(2-Methylpyridin-4-yl)-3-phenyl-3-o-tolylpropan-1-one oxime] | 0.018 µM |
| Cc1cc(Cl)ccc1C(C/C(=N\O)c1ccc(=O)n(C)c1)c1ccc(O)c(F)c1 (centres unmarked) [Example 324, 5-{3-(4-Chloro-2-methyl-phenyl)-3-(3-fluoro-4-hydroxy-phenyl)-1-[(E)-hydroxyimino]-propyl}-1-methyl-1H-pyridin-2-one] | 0.566 µM |
| Cc1ccccc1C(C/C(=N\O)c1cc(F)cc(F)c1)c1ccc(-c2cncnc2)cc1 (centres unmarked) [Example 54, (E)-1-(3,5-Difluoro-phenyl)-3-(4-pyrimidin-5-yl-phenyl)-3-o-tolyl-propan-1-one oxime] | 2.58 µM |
| Cc1ccccc1C(C/C(=N\O)c1ccc(=O)n(C)c1)c1ccc(C(=O)NCC(=O)O)cc1 (centres unmarked) [Example 215, {4-[3-[(E)-Hydroxyimino]-3-(1-methyl-6-oxo-1,6-dihydro-pyridin-3-yl)-1-o-tolyl-propyl]-benzoylamino}-acetic acid] | 0.81 µM |
| Cc1cc(Cl)ccc1C(C/C(=N\O)c1ccc(=O)n(C)c1)c1ccc(C(=O)O)cc1 (centres unmarked) [Example 361, 4-[1-(4-Chloro-2-methyl-phenyl)-3-[(E)-hydroxyimino]-3-(1-methyl-6-oxo-1,6-dihydro-pyridin-3-yl)-propyl]-benzoic acid] | 2.3 µM |
| Cc1cc(/C(C[C@H](c2ccc(N3CCOCC3)cc2)c2ccccc2C)=N/O)ccn1 [Example 264, (E,R)-1-(2-Methyl-pyridin-4-yl)-3-(4-morpholin-4-yl-phenyl)-3-o-tolyl-propan-1-one oxime] | 0.002 µM |
| CC(C)CC(C/C(=N/O)c1ccc(=O)n(C)c1)c1ccc(Br)cc1 (centres unmarked) [Example 171, 5-{3-(4-Bromo-phenyl)-1-[(Z)-hydroxyimino]-5-methyl-hexyl}-1-methyl-1H-pyridin-2-one] | 4 µM |
| Cc1cc(C(CC(c2ccccc2)c2ccccc2)=NO)cc(C)n1 (racemic) [Example 67, 1-(2,6-Dimethyl-pyridin-4-yl)-3,3-diphenyl-propan-1-one oxime] | 0.132 µM |
| Cc1cc(/C(C[C@H](c2ccc(C(=O)NC[C@H](C)O)cc2)c2ccccc2C)=N/O)ccn1 [Example 275, 4-[(R)-3-[(E)-Hydroxyimino]-3-(2-methyl-pyridin-4-yl)-1-o-tolyl-propyl]-N—((S)-2-hydroxy-propyl)-benzamide] | 0.026 µM |
| Cc1ccccc1[C@H](C/C(=N\O)c1ccnc(Cl)c1)c1ccc(-c2ccc(C(=O)O)cc2)cc1 [Example 290, 4′-{(R)-3-(2-Chloro-pyridin-4-yl)-3-[(E)-hydroxyimino]-1-o-tolyl-propyl}-biphenyl-4-carboxylic acid] | 0.037 µM |
| Cn1cc(/C(CC(c2ccc(F)cc2)c2ccc(Br)cc2)=N/O)ccc1=O (centres unmarked) [Example 479, 5-{3-(4-Bromo-phenyl)-3-(4-fluoro-phenyl)-1-[(E)-hydroxyimino]-propyl}-1-methyl-1H-pyridin-2-one] | 0.013 µM |
| Cc1cc(/C(C[C@H](c2ccc(N3CCC(C(=O)NCC(=O)O)CC3)cc2)c2ccccc2C)=N/O)ccn1 [Example 369, (R,E)-2-(1-(4-(3-(Hydroxyimino)-3-(2-methylpyridin-4-yl)-1-o-tolylpropyl)phenyl)-piperidine-4-carboxamido)acetic acid] | 0.002 µM |
| Cn1cc(/C(CC(c2ccc(C(=O)NCCS(C)(=O)=O)cc2)c2ccc(Cl)cc2F)=N/O)ccc1=O (centres unmarked) [Example 313, 4-[1-(4-Chloro-2-fluoro-phenyl)-3-[(E)-hydroxyimino]-3-(1-methyl-6-oxo-1,6-dihydro-pyridin-3-yl)-propyl]-N-(2-methanesulfonyl-ethyl)-benzamide] | 0.266 µM |

Continued, values first:

| EC50 | SMILES |
| --- | --- |
| 0.025 µM | Cc1cc(/C(C[C@H](c2ccc(C3CCC(C(=O)O)CC3)cc2)c2ccc(Cl)cc2C)=N/O)ccn1 (stereo partly drawn) [Example 503, (R,E)-4-(4-(1-(4-Chloro-2-methylphenyl)-3-(hydroxyimino)-3-(2-methylpyridin-4-yl)propyl)phenyl)cyclohexanecarboxylic acid] |
| 0.04 µM | Cc1cc(F)ccc1C(C/C(=N\O)c1ccc(=O)n(C)c1)c1ccc(-c2ccc(-c3nnn[nH]3)cc2)cc1 (centres unmarked) [Example 260, 5-{3-(4-Fluoro-2-methyl-phenyl)-1-[(E)-hydroxyimino]-3-[4′-(1H-tetrazol-5-yl)-biphenyl-4-yl]-propyl}-1-methyl-1H-pyridin-2-one] |
| 3.64 µM | Cc1ccccc1C(C/C(=N\O)c1ccnc2cc(Cl)ccc12)c1ccc(Br)cc1 (centres unmarked) [Example 157, (E)-3-(4-Bromo-phenyl)-1-(7-chloro-quinolin-4-yl)-3-o-tolyl-propan-1-one oxime] |
| 0.012 µM | Cc1cc(C(CC(c2ccc(CCCO)cc2)c2ccccc2C)=NO)ccn1 (racemic) [Example 88, 3-[4-(3-Hydroxy-propyl)-phenyl]-1-(2-methyl-pyridin-4-yl)-3-o-tolyl-propan-1-one oxime] |
| 0.146 µM | Cc1cc(C(CC(c2cccc(Br)c2)c2ccccc2C)=NO)ccn1 (racemic) [Example 98, 3-(3-Bromo-phenyl)-1-(2-methyl-pyridin-4-yl)-3-o-tolyl-propan-1-one oxime] |
| 0.153 µM | Cc1cc(/C(C[C@H](c2ccc(C3CN(C(=O)OC(C)(C)C)C3)cc2)c2ccccc2C)=N/O)ccn1 [Example 481, (R,E)-tert-Butyl 3-(4-(3-(hydroxyimino)-3-(2-methylpyridin-4-yl)-1-o-tolylpropyl)phenyl)-azetidine-1-carboxylate] |
| 2.18 µM | CC(=O)NCCNC(=O)c1ccc(C(C/C(=N\O)c2ccc(=O)n(C)c2)c2ccccc2C)cc1 (centres unmarked) [Example 246, (E)-N-(2-Acetamidoethyl)-4-(3-(hydroxyimino)-3-(1-methyl-6-oxo-1,6-dihydropyridin-3-yl)-1-o-tolylpropyl)benzamide] |
| 6.14 µM | Cc1ccccc1C(C/C(=N\O)c1cnccn1)c1ccc(Br)cc1 (centres unmarked) [Example 156, (E)-3-(4-Bromo-phenyl)-1-pyrazin-2-yl-3-o-tolyl-propan-1-one oxime] |
| 0.489 µM | Cc1cc(Cl)ccc1C(C/C(=N\O)c1ccc(=O)n(C)c1)c1ccc(NS(=O)(=O)C2CC2)cc1 (centres unmarked) [Example 354, Cyclopropanesulfonic acid {4-[1-(4-chloro-2-methyl-phenyl)-3-[(E)-hydroxyimino]-3-(1-methyl-6-oxo-1,6-dihydro-pyridin-3-yl)-propyl]-phenyl}-amide] |
| 0.993 µM | Cc1cc(Cl)ccc1C(C/C(=N\O)c1ccc(=O)n(CCO)c1)c1ccc(S(C)(=O)=O)cc1 (centres unmarked) [Example 342, (E)-5-(3-(4-Chloro-2-methylphenyl)-1-(hydroxyimino)-3-(4-(methylsulfonyl)phenyl)-propyl)-1-(2-hydroxyethyl)pyridin-2(1H)-one] |
| 0.319 µM | CCS(=O)(=O)c1ccc(C(C/C(=N\O)c2ccc(=O)n(C)c2)c2ccc(Cl)cc2F)cc1 (centres unmarked) [Example 316, (E)-5-(3-(4-Chloro-2-fluorophenyl)-3-(4-(ethylsulfonyl)phenyl)-1-(hydroxyimino)propyl)-1-methylpyridin-2(1H)-one] |
